Earlier results on 1 molecule are cited in US20250295648A1 (priority 2024, published 2025).

This data set concerns Parkinson's patients with troublesome L-DOPA-induced dyskinesia. The conditions noted are these: cited from earlier work.

Consider `Fc1ccc(-c2cncc(CNC[C@H]3CCc4ccccc4O3)c2)cc1` [sarizotan], for which, for the setting “phase 2b study, Goetz 2007”, the “effect on L-DOPA efficacy” value is “two of the three tested doses significantly reduced L-DOPA efficacy”. For the same molecule, the “reduction of LID” value (third (lowest) dose, two phase 3 trials) is “ineffective in reducing LID”.
